Reference: ChEMBL document CHEMBL3244339, “Antitumor 1-(X-aryl)-3,3-dialkyltriazenes. 1. Quantitative structure-activity relationships vs. L1210 leukemia in mice” (J Med Chem, 1978)
The source made the active and inactive calls. No cut-off for these calls is given here.

Legend:
L1210 [1] = assay: Antitumor activity against mouse L1210 cells allografted in mouse assessed as increase of host lifespan; type: functional
[2] = Distribution coefficient, log P of the compound; type: physicochemical; settings: octanol/water; read-out: logP
[3] = Aqueous phase distribution coefficient, log P of the compound in phosphate buffer at pH 7.4; type: physicochemical
Mus musculus = species: Mus musculus; assay: Toxicity in mouse L1210 cells allografted mouse assessed as mortality up to 5 days; type: organism-based; settings: l1210, 120 h
L1210 [4] = assay: Antitumor activity against mouse L1210 cells allografted in mouse assessed as increase of host lifespan of 110 days; type: functional, cell-based

Structure (SMILES)	log(1/C) (L1210 [1])	logP [2]	logD [3]	Activity (Mus musculus)	Activity (L1210 [4])
CN(C)/N=N/c1ccccc1C(N)=O	3.31	1.73	1.73		
COc1ccccc1/N=N/N(C)C			2.34	Toxic	
CSc1ccccc1/N=N/N(C)C			3.13		inactive
CN(C)/N=N/c1ccccc1	3.85	2.59	2.59		
